Reference: US20240366624A1, “METHODS AND COMPOSITIONS FOR TREATING THROMBOTIC DISEASE” (Washington University, priority 2023, published 2024)
“Also recorded” adds a separate entry of the source.

How the values were obtained:
[1] = from studies; cited from earlier work
WT mice = assay: FeCl3-induced carotid arterial thrombosis; type: in vivo, mouse
Experimental: FIG. […]) is an exemplary embodiment of B12-5 having an antithrombotic effect without prolonging tail bleeding times in mice in accordance with the present disclosure. FIG. […]): Ex vivo effects of B12-5. Wild type (WT; […] One hour later, blood was drawn, followed by isolating platelets. P-selectin exposure (FIG. 19A) and αIIbβ3 integrin activation (FIG. 19B) were assessed in flow cytometry. FIG. 19C: Platelet aggregation was measured after treatment with 0.025 U/mL thrombin. The data represent the mean±SD (n=4). FIG. 19D: The plasma levels of B12-5 were analyzed by liquid chromatography-tandem mass spectrometry (LC-MS/MS) after intravenous injection of the compound (5 μg/g BW) into WT mice and quantified by comparison with a standard curve of B12-5 (mean±SD, n=3). FIG. 19E and FIG. 19F: After laser-induced cremaster arteriolar injury, intravital microscopy was conducted with WT mice pretreated with intravenous injection of saline, eptifibatide (5 μg/g BW), vehicle, or B12-5 (5 μg/g BW). The median integrated fluorescence intensities of anti-CD42c (F platelet) and anti-fibrin (F fibrin) antibodies (n=37-42 arterioles in 6 mice per group). Quantification of the antibody signal at a different time point after laser injury. FIG. 19G: Comparison of B12-5 (5 μg/g BW) with eptifibatide (5 μg/g BW) and their respective controls in inhibiting FeCl3-induced carotid artery thrombosis in WT mice. FIG. 19H and FIG. 19I: WT mice were treated with intravenous injection of vehicle control, eptifibatide (5 μg/g BW), or B12-5 (5 μg/g BW). Thirty minutes later, tail bleeding times and Hb contents were measured after amputation of the tail tip. […] Twenty-three hours later, neurological deficits were assessed by the Bederson score and grip test, and infarct volume was measured as described in Methods. […] Twenty-three hours later, the neurological deficit and infarct volume were measured as described above. […] P values determined by unpaired Student t test (FIG. […]), FIG. 19K, and FIG. 19O) or Mann-Whitney U test (FIG. 19(E-1), FIG. 19L, FIG. 19M, FIG. 19P, and FIG. 19Q). […]

WT (C57BL/6) mice = assay: Transient middle cerebral artery occlusion (tMCAO) ischemic stroke model; type: in vivo, mouse; conditions: single iv 5 μg/g BW after tMCAO, 23 hours later
Experimental: FIG. 19(A-Q) is an exemplary embodiment of B12-5 having an antithrombotic effect without prolonging tail bleeding times in mice in accordance with the present disclosure. FIG. 19(A-C): Ex vivo effects of B12-5. Wild type (WT; C57BL/6) mice were treated with intravenous injection of vehicle (20% polyethylene glycol [PEG]+3% dimethyl sulfoxide [DMSO]) or B12-5 (5 μg/g body weight [BW]). One hour later, blood was drawn, followed by isolating platelets. P-selectin exposure (FIG. 19A) and αIIbβ3 integrin activation (FIG. 19B) were assessed in flow cytometry. FIG. 19C: Platelet aggregation was measured after treatment with 0.025 U/mL thrombin. The data represent the mean±SD (n=4). FIG. 19D: The plasma levels of B12-5 were analyzed by liquid chromatography-tandem mass spectrometry (LC-MS/MS) after intravenous injection of the compound (5 μg/g BW) into WT mice and quantified by comparison with a standard curve of B12-5 (mean±SD, n=3). FIG. 19E and FIG. 19F: After laser-induced cremaster arteriolar injury, intravital microscopy was conducted with WT mice pretreated with intravenous injection of saline, eptifibatide (5 μg/g BW), vehicle, or B12-5 (5 μg/g BW). The median integrated fluorescence intensities of anti-CD42c (F platelet) and anti-fibrin (F fibrin) antibodies (n=37-42 arterioles in 6 mice per group). Quantification of the antibody signal at a different time point after laser injury. FIG. 19G: Comparison of B12-5 (5 μg/g BW) with eptifibatide (5 μg/g BW) and their respective controls in inhibiting FeCl3-induced carotid artery thrombosis in WT mice. FIG. 19H and FIG. 19I: WT mice were treated with intravenous injection of vehicle control, eptifibatide (5 μg/g BW), or B12-5 (5 μg/g BW). Thirty minutes later, tail bleeding times and Hb contents were measured after amputation of the tail tip. Bars represent the median value (FIG. 19(E-1)). FIG. 19J and FIG. 19M: WT control and Ero1α conditional knockout (CKO) and knockout (KO) mice were subjected to transient middle cerebral artery occlusion (tMCAO). Twenty-three hours later, neurological deficits were assessed by the Bederson score and grip test, and infarct volume was measured as described in Methods. FIG. 19N through FIG. 19Q: WT mice were subjected to tMCAO and then treated with saline, vehicle, or B12-5 (5 μg/g BW). Twenty-three hours later, the neurological deficit and infarct volume were measured as described above. FIG. 19K and FIG. 19O: The data represent the mean±SD (n=7-8). FIG. 19L, FIG. 19M, FIG. 19P, and FIG. 19Q: The bar indicates the median with interquartile range. P values determined by unpaired Student t test (FIG. 19(A-C), FIG. 19K, and FIG. 19O) or Mann-Whitney U test (FIG. 19(E-1), FIG. 19L, FIG. 19M, FIG. 19P, and FIG. 19Q). […]

Water solubility = type: physicochemical

| SMILES | thiol-reacting activity [1] | time to occlusion (WT mice; 5 μg/g BW, vs vehicle control) | platelet thrombus formation (WT mice; iv 5 microg/g mouse) | infarct volume (WT (C57BL/6) mice) | neurological deficits (Bederson score, grip test) (WT (C57BL/6) mice) | infarct volume (WT (C57BL/6) mice; listed as B112-5) | neurological deficits (Bederson score, grip test) (WT (C57BL/6) mice; listed as B112-5) | water solubility (Water solubility) |
| --- | --- | --- | --- | --- | --- | --- | --- | --- |
| O=C(O)c1cc(N2N=C(C(F)(F)F)/C(=C/c3ccc(-c4ccccc4)o3)C2=O)ccc1Cl [EN460] | has thiol-reacting activity |  |  |  |  |  |  |  |
| O=C(CSc1nc(O)cc(O)n1)N1c2ccccc2Sc2ccccc21 [B12-5] |  | significantly prolonged | significantly reduced | significantly reduced | ameliorated | significantly reduces; also recorded: reduced | improves | poor |
